# Experimental data published in ChEMBL document CHEMBL3244272, “Folate antagonists. 15. 2,3-Diamino-6-(2-naphthylsulfonyl)quinazoline and related 2,4-diamino-6-[(phenyl and naphthyl)sulfinyl and sulfonyl]quinazolines, a potent new class of antimetabolites with phenomenal antimalarial activity” (J Med Chem, 1979).
# Calls of active or inactive are those of the source. The rule behind the calls is not given here.
# Assays:
# Gallus gallus [1] = test: Toxicity in trophozoite-induced Plasmodium gallinaceum infected in chick assessed as death at 80 mg/kg, sc single dose measured within 48 hrs; assay type: organism-based; design: dose 80 mg/kg, route subcutaneous; conditions: chicken, in vivo
# Plasmodium berghei [2] = test: Antimalarial activity against trophozoite-induced Plasmodium berghei infected in sc dosed mouse assessed as minimum curative dose; assay type: functional
# Plasmodium berghei [3] = test: Antimalarial activity against trophozoite-induced Plasmodium berghei infected in mouse assessed as change in mean survival time at 2.5 mg/kg, sc single dose after 72 hrs of infection; assay type: functional; conditions: route subcutaneous
# Plasmodium berghei [4] = test: Antimalarial activity against trophozoite-induced Plasmodium berghei infected in mouse assessed as change in mean survival time at 1.25 mg/kg, sc single dose after 72 hrs of infection; assay type: functional; conditions: route subcutaneous
# Plasmodium gallinaceum [5] = test: Antimalarial activity against trophozoite-induced Plasmodium gallinaceum infected in chick assessed as mean survival time at 10 mg/kg, sc single dose (reference value: 4 days); assay type: functional; conditions: route subcutaneous
# Plasmodium gallinaceum [6] = test: Antimalarial activity against trophozoite-induced Plasmodium gallinaceum infected in chick assessed as mean survival time at 5 mg/kg, sc single dose (reference value: 4 days); assay type: functional; conditions: route subcutaneous
# Plasmodium gallinaceum [7] = test: Antimalarial activity against trophozoite-induced Plasmodium gallinaceum infected in chick assessed as mean survival time at 2.5 mg/kg, sc single dose (reference value: 4 days); assay type: functional; conditions: route subcutaneous
# Plasmodium gallinaceum [8] = test: Antimalarial activity against trophozoite-induced Plasmodium gallinaceum infected in chick assessed as mean survival time at 1.25 mg/kg, sc single dose (reference value: 4 days); assay type: functional; conditions: route subcutaneous
# Plasmodium gallinaceum [9] = test: Antimalarial activity against trophozoite-induced Plasmodium gallinaceum infected in chick assessed as mean survival time at 0.63 mg/kg, sc single dose (reference value: 4 days); assay type: functional; conditions: route subcutaneous
# Plasmodium gallinaceum [10] = test: Antimalarial activity against trophozoite-induced Plasmodium gallinaceum infected in chick assessed as cured at 2.5 mg/kg, sc single dose; assay type: functional, organism-based; design: dose 2.5 mg/kg
# Plasmodium gallinaceum [11] = test: Antimalarial activity against trophozoite-induced Plasmodium gallinaceum infected in chick assessed as cured at 1.25 mg/kg, sc single dose; assay type: functional, organism-based; design: dose 1.25 mg/kg
# Plasmodium gallinaceum [12] = test: Antimalarial activity against trophozoite-induced Plasmodium gallinaceum infected in chick assessed as cured at 0.63 mg/kg, sc single dose; assay type: functional, organism-based; design: dose 0.63 mg/kg
# Gallus gallus [13] = test: Toxicity in trophozoite-induced Plasmodium gallinaceum infected in chick assessed as death at 160 mg/kg, sc single dose measured within 48 hrs; assay type: organism-based; design: dose 160 mg/kg, route subcutaneous; conditions: chicken, in vivo
# Gallus gallus [14] = test: Toxicity in trophozoite-induced Plasmodium gallinaceum infected in chick assessed as death at 40 mg/kg, sc single dose measured within 48 hrs; assay type: organism-based; design: dose 40 mg/kg, route subcutaneous; conditions: chicken, in vivo
# Gallus gallus [15] = test: Toxicity in trophozoite-induced Plasmodium gallinaceum infected in chick assessed as death at 20 mg/kg, sc single dose measured within 48 hrs; assay type: organism-based; design: dose 20 mg/kg, route subcutaneous; conditions: chicken, in vivo
# Gallus gallus [16] = test: Toxicity in trophozoite-induced Plasmodium gallinaceum infected in chick assessed as death at 10 mg/kg, sc single dose measured within 48 hrs; assay type: organism-based; design: dose 10 mg/kg, route subcutaneous; conditions: chicken, in vivo
# Gallus gallus [17] = test: Toxicity in trophozoite-induced Plasmodium gallinaceum infected in chick assessed as death at 5 mg/kg, sc single dose measured within 48 hrs; assay type: organism-based; design: dose 5 mg/kg, route subcutaneous; conditions: chicken, in vivo
# Gallus gallus [18] = test: Toxicity in trophozoite-induced Plasmodium gallinaceum infected in chick assessed as death at 2.5 mg/kg, sc single dose measured within 48 hrs; assay type: organism-based; design: dose 2.5 mg/kg, route subcutaneous; conditions: chicken, in vivo
# Gallus gallus [19] = test: Toxicity in trophozoite-induced Plasmodium gallinaceum infected in chick assessed as death at 1.25 mg/kg, sc single dose measured within 48 hrs; assay type: organism-based; design: dose 1.25 mg/kg, route subcutaneous; conditions: chicken, in vivo
# Gallus gallus [20] = test: Toxicity in trophozoite-induced Plasmodium gallinaceum infected in chick assessed as death at 0.63 mg/kg, sc single dose measured within 48 hrs; assay type: organism-based; design: dose 0.63 mg/kg, route subcutaneous; conditions: chicken, in vivo
# Gallus gallus [21] = test: Toxicity in trophozoite-induced Plasmodium gallinaceum infected in chick assessed as death at 320 mg/kg, sc single dose measured within 48 hrs; assay type: organism-based; design: dose 320 mg/kg, route subcutaneous; conditions: chicken, in vivo
# Plasmodium gallinaceum [22] = test: Antimalarial activity against cycloguanil-resistant Plasmodium gallinaceum infected in mouse assessed as dose required to suppress parasitemia by 90% compound treated through gavage for 3 days; assay type: functional
# Plasmodium gallinaceum [23] = test: Antimalarial activity against cycloguanil-resistant Plasmodium gallinaceum infected in mouse assessed as dose required to suppress parasitemia by 90% compound treated through gavage for 3 days relative to parent strain; assay type: functional
# Plasmodium falciparum [24] = test: Antimalarial activity against chloroquine-sensitive, pyrimethamine-resistant Plasmodium falciparum Malayan Camp CH/Q infected in Aotus monkey assessed as dose required to >50% cures compound treated for 7 days; assay type: functional
# Plasmodium falciparum [25] = test: Antimalarial activity against chloroquine-resistant, pyrimethamine-sensitive Plasmodium falciparum Vietnam Oak Knoll in Aotus monkey assessed as dose required to >50% cures compound treated for 7 days; assay type: functional
# Plasmodium falciparum [26] = test: Antimalarial activity against Plasmodium falciparum Malayan Camp CH/Q infected in po once daily dosed Owl monkey assessed as curative dose compound treated for 7 days; assay type: functional
# Plasmodium falciparum [27] = test: Antimalarial activity against Plasmodium falciparum Vietnam Oak Knoll in po once daily dosed Owl monkey assessed as curative dose compound treated for 7 days; assay type: functional
# Plasmodium falciparum [28] = test: Antimalarial activity against Plasmodium falciparum Vietnam Smith in po once daily dosed Owl monkey assessed as curative dose compound treated for 7 days; assay type: functional
# Plasmodium vivax [29] = test: Antimalarial activity against Plasmodium vivax New Guinea Chesson in po once daily dosed Owl monkey assessed as curative dose compound treated for 7 days; assay type: functional
# Plasmodium vivax [30] = test: Antimalarial activity against Plasmodium vivax VietnamPalo Alto in po once daily dosed Owl monkey assessed as curative dose compound treated for 7 days; assay type: functional
# Plasmodium falciparum [31] = test: Antimalarial activity against Plasmodium falciparum Malayan Camp CH/Q infected in po dosed Owl monkey assessed as curative dose compound treated for 7 days in presence of 5 mg/kg sulfadiazine for 7 days; assay type: functional
# Plasmodium falciparum [32] = test: Antimalarial activity against Plasmodium falciparum Vietnam Oak Knoll in po dosed Owl monkey assessed as curative dose compound treated for 7 days in presence of 5 mg/kg sulfadiazine for 7 days; assay type: functional
# Plasmodium falciparum [33] = test: Antimalarial activity against Plasmodium falciparum Vietnam Smith in po dosed Owl monkey assessed as curative dose compound treated for 7 days in presence of 5 mg/kg sulfadiazine for 7 days; assay type: functional
# Plasmodium vivax [34] = test: Antimalarial activity against Plasmodium vivax VietnamPalo Alto in po dosed Owl monkey assessed as curative dose compound treated for 7 days in presence of 5 mg/kg sulfadiazine for 7 days; assay type: functional
# Enterococcus faecalis [35] = test: Antibacterial activity against Streptococcus faecalis MGH-2 assessed as growth inhibition; assay type: functional
# Staphylococcus aureus [36] = test: Antibacterial activity against Staphylococcus aureus UC-76 assessed as growth inhibition; assay type: functional
# Staphylococcus aureus [37] = test: Antibacterial activity against Staphylococcus aureus S18713 assessed as growth inhibition; assay type: functional
# Pseudomonas aeruginosa = test: Antibacterial activity against Pseudomonas aeruginosa 28 assessed as growth inhibition; assay type: functional
# Escherichia coli = test: Antibacterial activity against Escherichia coli Vogel assessed as growth inhibition; assay type: functional
# Shigella sonnei = test: Antibacterial activity against Shigella sonnei C-10 assessed as growth inhibition; assay type: functional
# [38] = test system: Mycobacterium tuberculosis; test: Antibacterial activity against Mycobacterium tuberculosis H37Rv assessed as growth inhibition; assay type: functional
# Enterococcus faecalis [39] = test: Antibacterial activity against Streptococcus faecalis assessed as growth inhibition; assay type: functional, organism-based
# Lacticaseibacillus casei = test: Antibacterial activity against Lactobacillus casei assessed as growth inhibition; assay type: functional, organism-based
# [40] = Antibacterial activity against Pediococcus cerevisiae assessed as growth inhibition; assay type: functional
# [41] = Inhibition of Plasmodium berghei dihydrofolate reductase
# Plasmodium berghei [42] = test: Antimalarial activity against trophozoite-induced Plasmodium berghei infected in mouse assessed as change in mean survival time at 5 mg/kg, sc single dose after 72 hrs of infection; assay type: functional; conditions: route subcutaneous
# Plasmodium gallinaceum [43] = test: Antimalarial activity against trophozoite-induced Plasmodium gallinaceum infected in chick assessed as mean survival time at 40 mg/kg, sc single dose (reference value: 4 days); assay type: functional; conditions: route subcutaneous
# Plasmodium gallinaceum [44] = test: Antimalarial activity against trophozoite-induced Plasmodium gallinaceum infected in chick assessed as mean survival time at 20 mg/kg, sc single dose (reference value: 4 days); assay type: functional; conditions: route subcutaneous
# Plasmodium gallinaceum [45] = test: Antimalarial activity against trophozoite-induced Plasmodium gallinaceum infected in chick assessed as cured at 5 mg/kg, sc single dose; assay type: functional, organism-based; design: dose 5 mg/kg
# Plasmodium gallinaceum [46] = test: Antimalarial activity against trophozoite-induced Plasmodium gallinaceum infected in chick assessed as cured at 40 mg/kg, sc single dose; assay type: functional, organism-based; design: dose 40 mg/kg
# Plasmodium gallinaceum [47] = test: Antimalarial activity against trophozoite-induced Plasmodium gallinaceum infected in chick assessed as cured at 20 mg/kg, sc single dose; assay type: functional, organism-based; design: dose 20 mg/kg
# Plasmodium gallinaceum [48] = test: Antimalarial activity against trophozoite-induced Plasmodium gallinaceum infected in chick assessed as cured at 10 mg/kg, sc single dose; assay type: functional, organism-based; design: dose 10 mg/kg
# Plasmodium gallinaceum [49] = test: Antimalarial activity against cycloguanil-resistant Plasmodium gallinaceum infected in mouse assessed as dose required to suppress parasitemia by 90% compound treated through diet for 6 days relative to parent strain; assay type: functional
smiles,measurement,setting,value
Nc1nc(N)c2cc(S(=O)(=O)c3ccc(Cl)cc3)ccc2n1,Activity,Gallus gallus [1],Toxic
same,MCD,Plasmodium berghei [2],40 mg/kg
same,MST,Plasmodium berghei [3],12.2 days
same,MST,Plasmodium berghei [4],7.7 days
same,MST,Plasmodium gallinaceum [5],20 days
same,MST,Plasmodium gallinaceum [6],16 days
same,MST,Plasmodium gallinaceum [7],15 days
same,MST,Plasmodium gallinaceum [8],7.4 days
same,MST,Plasmodium gallinaceum [9],4 days
same,Activity,Plasmodium gallinaceum [10],Active
same,Activity,Plasmodium gallinaceum [11],Active
same,Activity,Plasmodium gallinaceum [12],Active
same,Activity,Gallus gallus [13],Toxic
same,Activity,Gallus gallus [14],Toxic
same,Activity,Gallus gallus [15],Toxic
same,Activity,Gallus gallus [16],Toxic
same,Activity,Gallus gallus [17],Toxic
same,Activity,Gallus gallus [18],Toxic
same,Activity,Gallus gallus [19],Toxic
same,Activity,Gallus gallus [20],Toxic
same,Activity,Gallus gallus [21],Toxic
Nc1nc(N)c2cc(S(=O)(=O)c3ccc4ccccc4c3)ccc2n1,Activity,Plasmodium gallinaceum [22],2.4 mg/kg
same,fold change (FC),Plasmodium gallinaceum [23],0
same,Activity,Plasmodium falciparum [24],0.39 mg/kg
same,Activity,Plasmodium falciparum [25],0.025 mg/kg
same,CD90,Plasmodium falciparum [26],0.39 mg/kg
same,CD90,Plasmodium falciparum [27],0.098 mg/kg
same,CD90,Plasmodium falciparum [28],>6.25 mg/kg
same,CD90,Plasmodium vivax [29],0.39 mg/kg
same,CD90,Plasmodium vivax [30],6.25 mg/kg
same,CD90,Plasmodium falciparum [31],0.025 mg/kg
same,CD90,Plasmodium falciparum [32],1.56 µg/kg
same,CD90,Plasmodium falciparum [33],0.39 mg/kg
same,CD90,Plasmodium vivax [34],0.098 mg/kg
same,MIC,Enterococcus faecalis [35],> 25 µg/mL
same,MIC,Staphylococcus aureus [36],25 µg/mL
same,MIC,Staphylococcus aureus [37],> 25 µg/mL
same,MIC,Pseudomonas aeruginosa,> 25 µg/mL
same,MIC,Escherichia coli,> 25 µg/mL
same,MIC,Shigella sonnei,> 25 µg/mL
same,MIC,[38],> 25 µg/mL
same,IC50,Enterococcus faecalis [39],0.007 ng/mL
same,IC50,Lacticaseibacillus casei,0.14 µg/L
same,IC50,[40],0.16 µg/L
same,IC50,[41],2.4 nM
same,MCD,Plasmodium berghei [2],20 mg/kg
same,MST,Plasmodium berghei [42],15.6 days
same,MST,Plasmodium berghei [3],12.1 days
same,MST,Plasmodium berghei [4],10.9 days
same,MST,Plasmodium gallinaceum [43],20.4 days
same,MST,Plasmodium gallinaceum [44],15 days
same,MST,Plasmodium gallinaceum [5],13 days
same,MST,Plasmodium gallinaceum [6],11.8 days
same,MST,Plasmodium gallinaceum [7],8.8 days
same,MST,Plasmodium gallinaceum [8],6 days
same,Activity,Plasmodium gallinaceum [45],Active
same,Activity,Plasmodium gallinaceum [10],Active
same,Activity,Plasmodium gallinaceum [11],Active
same,Activity,Plasmodium gallinaceum [46],Active
same,Activity,Plasmodium gallinaceum [47],Active
same,Activity,Plasmodium gallinaceum [48],Active
same,Activity,Gallus gallus [14],Toxic
same,Activity,Gallus gallus [15],Toxic
same,Activity,Gallus gallus [16],Toxic
same,Activity,Gallus gallus [17],Toxic
same,Activity,Gallus gallus [18],Toxic
same,Activity,Gallus gallus [19],Toxic
Nc1nc(N)c2cc(Sc3ccc(Cl)cc3)ccc2n1,fold change (FC),Plasmodium gallinaceum [49],4
same,Activity,Plasmodium falciparum [24],5 mg/kg
same,Activity,Plasmodium falciparum [25],0.31 mg/kg
